The values below come from patent US20070099839A1, “Inhibitors of cell migration” (CIT CANCER TARGETING TECHNOLOGIES, priority 2001, published 2007).

No end group written: not given here.

For one assay, the target named is T1, αM I domain (Homo sapiens, UniProt P11215).
T1 construct: GST-αM and GST-αL I domain fusion proteins were expressed and purified as described previously (30); made in house
Briefly: Binding of proMMP-9 to immobilized GST-αM I domain in the presence of competitor peptides (detected with GE-213 antibody). The conditions noted are these: FIG. 4C. The procedure:
(4C) Binding of proMMP-9 to the immobilized GST-αM I domain was studied in the presence of each peptide at the concentrations indicated. The binding was determined with the anti-MMP-9 antibody GE-213.
(§1) ICAM-1, fibrinogen, proMMP-8, proMMP-9 or the recombinant domains (0.5 μg/well in PBS) were coated on plastic 96-well plates at +4° C. for 16 h and the wells were blocked with 3% bovine serum albumin (BSA) in PBS for 2 h at room temperature. Binding of the GST-αM I domain was determined essentially as described in the first priority application. In the reverse assay, GST-αM I domain was coated and binding of proMMP-9 was determined using the GE-213 antibody. Competitor peptides were preincubated with the αM I-domain for 20 minutes before the experiment.

The target in another assay is T2, proMMP-8 (Homo sapiens).
T2 construct: GST-αM and GST-αL I domain fusion proteins were expressed and purified as described previously (30); made in house
T2 sequence (P11215 150-328 limits assumed): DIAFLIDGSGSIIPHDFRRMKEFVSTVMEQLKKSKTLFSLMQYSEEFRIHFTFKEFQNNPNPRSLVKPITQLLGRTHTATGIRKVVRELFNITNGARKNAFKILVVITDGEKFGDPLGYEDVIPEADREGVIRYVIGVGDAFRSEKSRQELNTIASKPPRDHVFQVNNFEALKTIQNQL
As to the kind of experiment: Binding of GST-αM I domain to immobilised proMMP-8 with competitors. The conditions noted are these: competitors 50 μM; FIG. 4D. As for the experimental part: (§2) (4D) Binding of GST-αM I domain to the immobilised proMMP-8, proMMP-9, ICAM-1, and fibrinogen was studied with ICAM-1, DDGW or KKGW (50 μM) as competitors. In control wells, GST was added instead of GST-αM I domain. The experiment was repeated three times with similar results.
as §1

A further assay concerns the target T3, proMMP-9 (Homo sapiens).
T3 construct: GST-αM and GST-αL I domain fusion proteins were expressed and purified as described previously (30); made in house
Briefly: Binding of GST-αM I domain to immobilised proMMP-9 with competitors. The conditions noted are these: competitors 50 μM; FIG. 4D. The procedure:
as §2, §1

The test system of assay [1] is PMNs. As to the kind of experiment: PMN adhesion to immobilized proMMP-9 (phosphatase assay). Format: cell-based, human. Particulars: PMA-stimulated PMNs; peptide 50 μM, antibody 20 μg/ml; FIG. 5C. The procedure: FIG. 5A to 5D. Recognition of recombinant MMP-9 domains by αMβ2 integrin-expressing cells. The studied cells were PMNs (5A, 5B, 5C), αMβ2 L-cell transfectants (5D), non-transfectants (5D), and LAD-1 cells (5D). PMNs were in resting state or stimulated with PMA (5A, 5C) or C5a or TNFα (5B) before the binding experiment to proMMP-9 or its domains. Cells were also pretreated with each peptide (50 μM), antibody (20 μg/ml) or the αM I domain as indicated. Unbound cells were removed by washing and the number of adherent cells was quantitated by a phosphatase assay. The experiment was repeated three times with similar results.
MMP-9 proteins (200 nM in PBS) were coated at +4° C. for 16 h and the microtiter wells were blocked with 3% BSA in PBS for 1 h at room temperature. The αMβ2-integrin L-cell transfectants and PMNs (1×10^5 cells/well) were suspended in RPMI medium supplemented with 2 mM MgCl2 and 0.1% BSA and activated with PMA (20 nM) for 20 min, or with C5a (50 nM) or TNF-α (10 nM) for 4 h at +37° C. The L926 wild type and LAD-1 cells were used as controls. The cells were treated with the indicated antibody (20 μg/ml) or peptide (50 μM) at +37° C. for 30 min, washed twice with serum-free medium and incubated in the microtiter wells at +37° C. for 30 min. The wells were washed with PBS, and the number of adherent cells was quantitated by a phosphatase assay (25).

The subject of assay [2] is PMNs. Briefly: PMN transwell migration on LLG-C4-GST coated filters. The class given is cell-based, human. The conditions noted are these: LLG-C4-GST substratum; peptides 200 μM, antibodies 20 μg/ml; 20 nM PMA; FIG. 6A. As for the experimental part:
(§3) FIG. 6A to 6D. Blockage of PMN and THP-1 cell migration in vitro by gelatinase and β2 integrin inhibitors. PMNs (1×10^5 in 100 μl) were applied on the LLG-C4-GST or GST coated surface (6A) or HMEC monolayer (6B) in the absence or presence of peptides (200 μM) or antibodies (20 μg/ml) as indicated. PMNs were stimulated with 20 nM PMA (6A), HMECs with […] or 10 ng/ml TNFα or left untreated (6B). THP-1 cells (5×10^4 in 100 μl) were stimulated with 50 nM PMA and applied on the coated surfaces together with each peptide (200 μM) (6C). The cells migrated through transwell filters were stained and counted microscopically. All experiments were repeated at least twice. (6D) Phorbol ester-activated THP-1 cells (5×10^4 in 100 μl) were incubated for 16 h at +37° C. in the presence or absence of peptides as indicated. The conditioned medium was analyzed by gelatin zymography.
(§4) Cell migration was conducted using Costar 24-transwell migration chambers with a 3 μm pore size for PMNs and 8 μm for THP-1 cells. To study β2 integrin-directed migration, the chamber membrane was coated on both sides with LLG-C4-GST integrin ligand (40 μg/ml) or GST as a control and blocked with 10% serum-containing medium (16). […] The non-migrated cells were removed from the upper surface by a cotton swab and the cells that had traversed the filters were stained with crystal violet and counted.

Assay [3] concerns PMNs. Briefly: PMN transendothelial migration through HMEC monolayer. Format: cell-based, human. The conditions noted are these: chemotaxis with C5a or TNF-α, peptides 200 μM, antibodies 20 μg/ml, FIG. 6B. As for the experimental part: as §3, §4
Assay [4] relates to THP-1 cells. As to the kind of experiment: THP-1 cell migration through LLG-C4-GST coated transwell filters. Format: cell-based, human. The conditions noted are these: LLG-C4GST coated filters; 50 nM PMA; peptides 200 μM; 16 h; FIG. 6C. The procedure: as §3, §4
The test system of assay [5] is intraperitoneal accumulation of PMNs. As to the kind of experiment: Mouse model of thioglycolate-induced peritonitis. Format: in vivo. Particulars: for prevention of thioglycolate-induced increase in gelatinase levels in intraperitoneal fluid (zymography): DDGW 0.1, HFDDDE 0.2, DFEDHD 0.2 mg per mouse intravenously, FIG. 7D; for inhibition of intraperitoneal accumulation of PMNs: intravenous tail injection, 3 h after thioglycolate, FIG. 7A. As for the experimental part: (7A) Mice were injected with thioglycolate or PBS intraperitoneally. The peptides were applied intravenuously at the amounts indicated (A). After 3 h, the intraperitoneal leukocytes were harvested and counted. […] (*) indicates statistical significant difference (p<0.001). The experiment was repeated at least 3 times. The infiltrated neutrophils of mice treated with thioglycolate (7B) or PBS (7C) were stained with anti-MMP-9 and anti-αM, as described in the FIG. 3 legend. Fluorescence was studied by confocal microscopy. Bars: 9.1 μm and […], respectively.
(7D) Gelatinolytic activity of the supernatants from the peritoneal cavities of mice collected as in (7A). Lanes 1-4: samples are from thioglycolate-treated mice; lane 5: a sample from PBS-treated mouse. DDGW, HFDDDE, and DFEDHD were injected intravenously at doses of 0.1, 0.2 and 0.2 mg per mouse. The arrows show proMMP-9 dimer, proMMP-9 and proMMP-2. The experiment was repeated three times with similar results.
Balb/c mice at the age of 31-32 weeks were injected intraperitoneally with 3% (w/v) thioglycolate in sterile saline (32). Peptides ([…] in 100 μl) were introduced intravenously through the tail vein. Animals were euthanized after 3 h and the peritoneal cells were harvested by injecting 10 ml of sterile PBS through the peritoneal wall. Red blood cells present in the lavage fluid were removed by hypotonic lysis. Cells were centrifuged and resuspended in 1 ml of sterile 0.25% BSA/Krebs-Ringer. The supernatants were also collected and analysed by gelatin zymography. The number of neutrophils was determined following staining with 0.1% crystal violet and using a light microscope equipped with a ×100 objective. For immunofluorescence staining, cells were allowed to bind to poly-L-lysine coated cover slips, fixed with 2.5% paraformaldehyde in PBS at +4° C. for 30 min followed by several washings. The Fc receptors were blocked in the presence of 20% of rabbit serum and 3% BSA in PBS. The cells were then incubated with anti-MMP-9 polyclonal and αM monoclonal (MCA74) antibodies for 30 min. After washing with PBS, the secondary antibodies, rhodamine (TRITC)-conjugated anti-rabbit or FITC-conjugated anti-rat (Fab′)2 were incubated for another 30 min. The samples were examined with a confocal microscope. The animal studies were approved by an ethical committee of Helsinki University.

Assay [6] concerns leukocyte primary adhesion to ICAM-1, fibrinogen or LLG-C4GST. As to the kind of experiment: Leukocyte primary adhesion to ICAM-1, fibrinogen or LLG-C4GST. Format: cell-based.
For assay [7], the system named is THP-1 cells. The conditions noted are these: FI 2003 0923; cited from earlier work.
The next assay concerns MMP-9 catalytic domain. Briefly: Binding to the MMP-9 catalytic domain (unpublished results).
Chain of MMP-9 catalytic domain (P14780 107-444 limits assumed): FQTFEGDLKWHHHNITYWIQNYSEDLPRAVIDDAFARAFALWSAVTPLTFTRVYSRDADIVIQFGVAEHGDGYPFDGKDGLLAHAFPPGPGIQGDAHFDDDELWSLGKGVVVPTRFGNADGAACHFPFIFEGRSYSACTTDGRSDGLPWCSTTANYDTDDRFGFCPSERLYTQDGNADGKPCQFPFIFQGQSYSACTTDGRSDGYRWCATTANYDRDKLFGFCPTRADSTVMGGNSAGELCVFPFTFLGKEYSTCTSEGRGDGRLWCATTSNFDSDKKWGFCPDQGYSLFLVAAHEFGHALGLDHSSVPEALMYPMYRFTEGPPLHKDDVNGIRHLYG
The subject of assay [8] is THP-1 cells. Briefly: Effect of peptides on gelatinase release from THP-1 cells (gelatin zymography). The conditions noted are these: phorbol ester-activated cells; peptides 200 μM; 16 h; FIG. 6D. Format: cell-based, human. The procedure: as §3
THP-1 cells (50 000/100 μl) were incubated in serum-free RPMI for 16 h in the presence or absence of peptides (200 μM) as described in the text The supernatants from THP-1 cells and mouse intraperitoneal fluid were analysed by gelatin zymography. Gelatinolytic activity was quantified by densitometric scanning.

T3 sequence (P11215 150-328 limits assumed): as the sequence (P11215 150-328 limits assumed) above
T1 sequence (P11215 150-328 limits assumed): as above

ADGACILWMDDGWCGAAG: the “inhibition of proMMP-9 binding to the αM I domain (in words)” value (“inhibition of proMMP-9 binding” below) with αM I domain was “equally potent”. Besides, the “competition with αM I domain binding to proMMP-8” value (from here on “competition … to proMMP-8”) with proMMP-8 (Homo sapiens) was “inhibitable”. In addition, the “competition with αM I domain binding to proMMP-9” value (“competition … to proMMP-9” below) in the assay with proMMP-9 (Homo sapiens) was “inhibitable”. Moreover, the “inhibition of PMN adherence on proMMP-9” value in the assay on PMNs [1] is given as “inhibited”. For the same molecule, in the assay with PMNs [2], the “inhibition of migration of PMA-stimulated PMNs” value is “worked similarly”. Moreover, the “inhibition of PMN transendothelial migration” value in the assay on PMNs [3] is “inhibition”. Further, the “inhibition of THP-1 migration” value in the assay on THP-1 cells [4] is given as “inhibited”. Further, in assay [5] (5 μg given per mouse, intravenous), the “activity on intraperitoneal PMN accumulation” value is on record as “active”. Moreover, in assay [5], the “prevention of thioglycolate-induced increase in gelatinase levels in intraperitoneal fluid (zymography)” value is “prevented the increase” and the “inhibition of intraperitoneal accumulation of PMNs” value (shortened to “inhibition … of PMNs”) is listed as “inhibited”. In assay [5] (corresponding to 5 μg given per mouse), the effective dose is 0.1 mg/kg mouse tissue. The “inhibition of leukocyte primary adhesion to ICAM-1, fibrinogen or LLG-C4GST” value in assay [6] is reported as “unable to inhibit”. In the assay with THP-1 cells [7], the “release of proMMP-9 from THP-1 cells (previous studies)” value is recorded as “can release proMMP-9”.

As for “ADGACILWMKKGWCGAAG [control peptide for DDGW]”, the “inhibition of proMMP-9 binding” value in the assay with αM I domain is “without effect”. The “inhibition of PMN adherence on proMMP-9” value in the assay with PMNs [1] is given as “no effect”. Further, in assay [5], the “inhibition … of PMNs” value is recorded as “no effect”.

As to CTITHWGFTLC [CTT], in the assay with PMNs [1], the “inhibition of PMN adherence on proMMP-9” value was “inhibited”. Also, the “inhibition of migration of PMA-stimulated PMNs” value with PMNs [2] is listed as “worked similarly”. Also, the “inhibition of PMN transendothelial migration” value in the assay with PMNs [3] was “inhibition”. Moreover, the “inhibition of THP-1 migration” value with THP-1 cells [4] is listed as “inhibited”. The “binding to the MMP-9 catalytic domain” value in the assay with MMP-9 catalytic domain is recorded as “binds”.

For the molecule DFEDHD, the “inhibition of proMMP-9 binding” value at αM I domain is “inactive”. For the same molecule, the “inhibition of PMN adherence on proMMP-9” value in the assay on PMNs [1] was “no effect”. Besides, the “release of proMMP-9 from THP-1 cells” value with THP-1 cells [8] was “did not induce”. Also, in [5], the “prevention of thioglycolate-induced increase in gelatinase levels in intraperitoneal fluid (zymography)” value was “not” and the “inhibition … of PMNs” value was “no effect”.

Broadly, the IC50 is the concentration that gives 50% inhibition. Consider HFDDDE [HFDDDE], for which the IC50 at αM I domain (read-out: inhibition of proMMP-9 binding to the αM I domain, IC50) worked out at 20 µM.

As for fibrinogen, the “competition … to proMMP-8” value in the assay with proMMP-8 (Homo sapiens) is listed as “did not compete”. Besides, the “competition … to proMMP-9” value in the assay with proMMP-9 (Homo sapiens) is “did not compete”.

B1: ICAM-1: intracellular adhesion molecule 1, β2 integrin ligand used as competitor (protein, UniProt P05362 28-532, looked up)
Intercellular adhesion …: QTSVSPSKVILPRGGSVLVTCSTSCDQPKLLGIETPLPKKELLLPGNNRKVYELSNVQEDSQPMCYSNCPDGQSTAKTFLTVYWTPERVELAPLPSWQPVGKNLTLRCQVEGGAPRANLTVVLLRGEKELKREPAVGEPAEVTTTVLVRRDHHGANFSCRTELDLRPQGLELFENTSAPYQLQTFVLPATPPQLVSPRVLEVDTQGTVVCSLDGLFPVSEAQVHLALGDQRLNPTVTYGNDSFSAKASVSVTAEDEGTQRLTCAVILGNQSQETLQTVTIYSFPAPNVILTKPEVSEGTEVTVKCEAHPRAKVTLNGVPAQPLGPRAQLLLKATPEDNGRSFSCSATLEVAGQLIHKNQTRELRVLYGPRLDERDCPGNWTWPENSQQTPMCQAWGNPLPELKCLKDGTFPLPIGESVTVTRDLEGTYLCRARSTQGEVTRKVTVNVLSPRYEIVIITVVAAAVIMGTAGLSTYLYNRQRKIKKYRLQQAQKGTPMKPNTQATPP
Turning to B1, the “competition … to proMMP-8” value with proMMP-8 (Homo sapiens) was “did not compete”. Besides, in the assay with proMMP-9 (Homo sapiens), the “competition … to proMMP-9” value was “did not compete”.
